How the values were obtained:
PTEN-deficient cells = assay: Orotate rescue of growth inhibition by leflunomide; assay type: cell-based; conditions: increasing concentrations of orotate with 25 or 50 μM leflunomide; confluence after 5 days
From the text: (§1) FIG. 2F is a graph comparing various human breast cancer cell line growth rates. FIG. 2G is a series of immunoblots of pAKT in nuclear fractions of Pten^−/− and Pik3ca mutant MEFs. […] Data shown as mean+SD.
Note that here as well as in FIG. 2, H-I, a large amount of DMSO was used in each condition to match the amount of orotate needed, narrowing the growth differential normally observed between leflunomide-treated and untreated cells in the PTEN mutant setting. FIG. 8B is a bar graph and immunoblot depicting cells transfected with siRNA against DHODH. The bar graph depicts cell viability measured using annexin V and 7AAD. 0.5 μg/mL actinomycin D was a positive control for cell death. (Students t-test, *p<0.05, n=3). […] FIG. 8C is an immunoblot of DHODH in Pten KO and WT cells. FIG. 8D is an immunoblot of pAKT in Pten KO and WT cells with or without treatment with 50 μM A771726. FIG. 8E and FIG. 8F are bar graphs depicting the GI50s of cells treated with dose titrations of 5-fluorouracil or mercaptopurine, respectively (Student's t-test, p>0.05, n=3). FIG. 8G depicts the confluence of prostate cells grown in media containing full glutamine (4 mM) or no added glutamine. Data shown as means±SD.
Orotate (Sigma O2750) was dissolved in DMSO.

Pten^−/− and WT MEFs [1] = assay: Growth of Pten WT and KO MEFs with glutaminase inhibitor (proliferation assay); assay type: cell-based, mouse; conditions: 12.5 nM CB-839 (FIG. 1F)
Method: FIG. 1A is a graph comparing the growth of Pten wild-type (WT) and KO MEFs (one-way ANOVA, *p<0.0001, n=3). FIG. 1B is a series of representative confocal microscopy photographs showing MEFs labeled with EdU. FIG. 1C is a graph showing a quantitative depiction of the photographs in FIG. 1B (Student's t-test, *p<0.05, n=6). FIG. 1D is a graph showing a quantitative depiction of the mean fluorescence intensity of MEFs labeled with EdU; cells were analyzed by flow cytometry (Student's t-test, *p<0.01, n=3). FIG. 1E is a series of representative photographs showing Pten WT and KO MEFs in media containing full glutamine ([…]) or no added glutamine (one-way ANOVA, *p<0.0001, n=3). […] FIG. 1G is a graph comparing the relative metabolite concentrations of DNA nucleotide precursors in Pten WT and KO MEFs (dGMP was unable to be measured so dGTP was used instead) (Student's t-test, *p<0.05, n=3). […] Data were also analyzed with IMPaLA: ^13C glutamine-derived pyrimidine metabolism enrichment in PTEN^−/− MEFs q-value=3.92×10^−09. […]
1500 cells per well (mouse cells) or 3000 cells per well (human cells) were plated in 96-well plates (Corning 720089). Growth rates were determined using the phase-confluency readings on an IncuCyte ZOOM (Essen Biosciences) on live cells over time. […]

Pten^−/− and WT MEFs [2] = assay: Drug response assay (GI50 dose titration) in Pten WT and KO MEFs; assay type: cell-based, mouse; conditions: for differential sensitivity of Pten^−/− versus WT MEFs: GI50 dose titration (FIG. 8, E-F)
Method: as §1
(§2) 1500 cells per well (mouse cells) or 3000 cells per well (human cells) were plated in 96-well plates (Corning 720089). Growth rates were determined using the phase-confluency readings on an IncuCyte ZOOM (Essen Biosciences) on live cells over time.
(§3) Cells were plated in 96-well plates at a density of 1500 or 3000 cells per well. […] Sensitivity was determined by a dose-response titration for each cell line, with an equivalent amount of DMSO in each well. For cell death assays, DRAQ7™ (Cell Signaling 7406S) was added to the media at a 1:200 dilution and red fluorescence was measured in addition to phase in live-cell imaging to measure accumulation of dead cells. An IncuCyte ZOOM was used.

[3] = test system: MCCL-357 (Myc, Pten^−/−), CaP8 (PTEN^−/−), MCCL-278 (Myc, Pik3ca H1047R) and Myc-CaP (Myc); assay: Drug response assay (GI50) in mouse cancer lines; assay type: cell-based; conditions: Myc-CaP prostate cells (FIG. 7D)
From the text: as §1
(§4) FIG. 7C, FIG. 7D, and FIG. 7E are series of bar graphs depicting the GI50s of cells treated with dose titrations of DHODH inhibitors as indicated (Student's t-test, *p-values as reported on the figures, n=3). […] FIG. 7G depicts the confluence of MCCL-278 and MCCL-357 breast cells. FIG. 7H depicts the confluence of Myc-CaP and CaP8 prostate cells. FIG. 7I is an immunoblot of pAKT in MCCL-278 and MCCL-357 breast cells. FIG. 7J is an immunoblot of pAKT in nuclear fractions of MCCL-278 and MCCL-357 breast cells. Data shown as means±SD.
as §3

[4] = test system: Pten^−/− MEFs, PTEN-mutant human breast cancer cell lines, and Pten^−/− mouse breast lines; assay: Cell death accumulation by live-cell imaging with DRAQ7; assay type: cell-based; conditions: 100 uM leflunomide and DRAQ7, 6 h intervals; PTEN-deficient versus WT cells
From the text: as §1, §4, §3

[5] = test system: human breast, mouse breast, or mouse prostate tumor cell lines; assay: Proliferation rates of tumor cell lines versus leflunomide sensitivity; assay type: cell-based
From the text: as §1, §4, §2

[6] = test system: SUM149 and MDA-MB 468 xenografts; assay: PTEN-mutant triple-negative breast cancer xenografts; assay type: in vivo, nu/nu mice
Method: FIG. 3B is a graph showing the tumor volume of PTEN-mutant triple-negative breast cancer cell line SUM149 xenografts. […] FIG. 3C is a graph showing the relative luminescence of PTEN-mutant triple-negative breast cancer cell line MDA-MB 468 xenografts expressing luciferase. […] Radiance was measured on days 0, 7, 14, and 21, quantified as photons/second/cm^2/steradian. FIG. 3D: luminescence of treated and control mice after 2 weeks of treatment. Data shown as mean+SD for FIG. 3A and +SEM for FIGS. 3B and 3C.
FIG. 9A is an immunoblot of PTEN in the four patient-derived glioblastomas in FIG. 3A. […] Tumor size was measured by assessing luminescence, quantified by photons/second/cm^2/steradian (n=2). […] Tumor volume was measured by calipers. Growth rate of the tumors was determined by calculating the slope of the tumor growth (Student's t-test, *p<0.01, n=8). Data shown as means±SEM.
6-week old nu/nu mice (Jackson Laboratory, 20-25 g weight each) were engrafted orthotopically with either 5 million SUM149, 5 million MDAMB 468-luciferase, 1 million MCCL-357, or 0.75 million MCCL-278 cells. […] Luminescence was measured on days 0, 7, 14, and 21, quantified as photons/second/cm^2/steradian, and normalized to baseline.

gamma-H2AX = assay: Gamma-H2AX measurement of DNA damage by flow cytometry; assay type: cell-based; conditions: 100 μM leflunomide 48 h or A771726
Method: (§5) FIG. 4A is a graph showing positively-stained cells labeled with a gamma-H2AX antibody; cells were analyzed by flow cytometry (Student's t-test, *p<0.05, n=3). […] The mean fluorescence intensity (MFI) was determined using flow cytometry (Student's t-test, *p<0.01, n=3). FIG. 4C is a series of representative photographs showing MEFs treated with 150 μM A771726 for 24 h and labeled with EdU and gamma-H2AX. Left: representative confocal microscopy images. Right: quantified EdU and gamma-H2AX colocalized foci (Student's t-test, *p<0.05, n=3). […] Left: representative confocal microscopy images. Right: quantification of the number of foci per cell (Student's t-test, p>0.05, n=6). FIG. 4E is a graph showing the percentage of cells treated with 150 μM A771726 for times indicated and labeled with antibodies to RPA and gamma-H2AX positively staining for RPA alone or both RPA and gamma-H2AX; cells were analyzed by flow cytometry (Student's t-test, *p<0.05, n=4). […] FIGS. 4G and 4H are graphs quantifying the number of chromosomal breaks and multiradial formations per haploid genome (Student's t-test, *p-values on figure, cells scored/replicate>100). […]
(§6) FIG. 10D is a bar graph showing a quantitative depiction of the percent cell area with EdU-staining from images in FIG. 4D, used to normalize foci to cell size (Student's t-test, p>0.05, not significant, n=6). […]

Pten^−/− MEFs = assay: EdU detection of replication forks in MEFs; assay type: cell-based, mouse; conditions: after 24 h of treatment with leflunomide
Method: as §5, §6

[7] = in vivo; cited from earlier work

O=C(O)c1cc(=O)[nH]c(=O)[nH]1 [orotate]
rescue of growth inhibition by leflunomide (PTEN-deficient cells): rescued growth inhibition by leflunomide in a dose-dependent manner

O=C(Cc1cccc(OC(F)(F)F)c1)Nc1ccc(CCCCc2nnc(NC(=O)Cc3ccccn3)s2)nn1 [CB-839]
growth difference between Pten^−/− and WT MEFs (Pten^−/− and WT MEFs [1]): sufficient to collapse the growth difference

S=c1nc[nH]c2nc[nH]c12 [mercaptopurine]
differential sensitivity of Pten^−/− versus WT MEFs (Pten^−/− and WT MEFs [2]): did not show a differential sensitivity

Cc1c(-c2ccc(-c3ccccc3F)cc2)nc2ccc(F)cc2c1C(=O)O [brequinar]
sensitivity of Pten^−/− MEFs compared with WT MEFs (Pten^−/− and WT MEFs [2]; GI50 dose titration (FIG. 2A)): more sensitive

Cc1oncc1C(=O)Nc1ccc(C(F)(F)F)cc1 [leflunomide]
sensitivity of Myc-CaP cells [3]: resistant | accumulation of dead cells over time [4]: increased accumulation of dead cells over time | association of sensitivity with proliferation rates of tumor cell lines [5]: not associated with the proliferation rates | tumor growth upon treatment ([6]; 100 mg/kg oral leflunomide, two PTEN-mutant triple-negative breast cancer xenografts): slowed or regressed | response of very large tumors (4×10^7 photons) ([6]; MDA-MB 468 xenografts grown seven weeks untreated, then 100 mg/kg leflunomide for 1 week): regressed after only 1 week of treatment | DNA damage (gamma-H2AX) in PTEN-deficient versus WT cells (gamma-H2AX): augmented DNA damage to a significantly greater degree in PTEN-deficient cells | number of replication forks in Pten^−/− MEFs after treatment (Pten^−/− MEFs): remained intact | half-life [7]: ~2 weeks

O=c1[nH]cc(F)c(=O)[nH]1 [5-flurouracil, 5-fluorouracil]
differential sensitivity of Pten^−/− versus WT MEFs (Pten^−/− and WT MEFs [2]): did not show a differential sensitivity
